Test results reported in US12577227B2, “WDR5 inhibitors and modulators” (Vanderbilt University, priority 2019, dated 2026).

Tested on: MV4:11 human cancer cell lines
Assay: Cellular viability / anti-proliferative activity (CellTiter-Glo)
Type: cell-based
Conditions: MV4-11, 120 h, MV-4-11 cells, 5 day protocol, mean of minimum two replicates, read-out: GI50 on cellular proliferation of MV4:11 human cancer cell lines
Description: Cellular Viability of Human Tumor Cell Lines
Anti-Proliferative Activity Using MLL-Harboring Cell Lines.
MV-4-11 and K562 cells are grown in IMDM media supplemented with 10% FBS and […], Molm-13 cells are cultured in RPMI-1640 media supplemented with 10% FBS and 1% o penicillin/streptomycin. Viability assays are performed by dispensing 200 cells at 7200 cells/mL into each well of an opaque 384-well plate and adding compounds at the indicated concentrations in a final volume of 32 μL and a final concentration of DMSO of 0.3% for all samples. A certain range of compound concentrations is made through a series of 2-fold dilutions starting 30 μM at the highest, total 22 dilutions. After a set incubation period, 5 day protocol, the viability of cells in each well is assessed using the CellTiter-Glo assay (Promega), read on a 96 Microplane Luminometer (Cytation 3, BioTek). Serial dilutions of each cell type are performed in all assays to generate standard curves and the final densities of cells are determined within the dynamic range of the instrument. GI50 values are calculated based on XLfit software (IDBS, Guildford, UK) with Sigmoidal Dose-Response Model. Each compound is tested in minimum of two replicates. Data are expressed as mean.

SMILES: Cc1ccnc(CN2CCOc3c(cc(Cn4ccnc4C)cc3-c3cn(C)nc3C(F)(F)F)C2=O)c1 [Example 27, 7-((2-Methyl-1H-imidazol-1-yl)methyl)-9-(1-methyl-3-(trifluoromethyl)-1H-pyrazol-4-yl)-4-((4-methylpyridin-2-yl)methyl)-3,4-dihydrobenzo[f][1,4]oxazepin-5(2H)-one]
- GI50: 192 nM

SMILES: COc1cc(CN2CC(=O)Nc3c(cc(Cn4ccnc4C)cc3-c3ccc(F)cc3C)C2=O)cc(OC)c1 [Example 28, 4-(3,5-Dimethoxybenzyl)-9-(4-fluoro-2-methylphenyl)-7-((2-methyl-1H-imidazol-1-yl)methyl)-3,4-dihydro-1H-benzo[e][1,4]diazepine-2,5-dione]
- GI50: 232 nM

SMILES: COc1cc(CN2CCNc3c(cc(Cn4ccn(C)c4=N)cc3-c3ccc(F)cc3C)C2=O)cc(OC)c1 [Example 29, 4-(3,5-Dimethoxybenzyl)-9-(4-fluoro-2-methylphenyl)-7-((2-imino-3-methyl-2,3-dihydro-1H-imidazol-1-yl)methyl)-1,2,3,4-tetrahydro-5H-benzo[e][1,4]diazepin-5-one]
- GI50: 38 nM

SMILES: COc1cc(CN2CC(=O)Nc3c(cc(Cn4ccoc4=N)cc3-c3ccc(F)cc3C)C2=O)cc(OC)c1 [Example 30, 4-(3,5-Dimethoxybenzyl)-9-(4-fluoro-2-methylphenyl)-7-((2-iminooxazol-3(2H)-yl)methyl)-3,4-dihydro-1H-benzo[e][1,4]diazepine-2,5-dione]
- GI50: 190 nM

SMILES: Cc1cc(C)nc(CN2CCOc3c(cc(Cn4cnn(C)c4=N)cc3-c3cn(C)nc3C(F)(F)F)C2=O)c1 [Example 31, 4-((4,6-dimethylpyridin-2-yl)methyl)-7-((5-imino-1-methyl-1,5-dihydro-4H-1,2,4-triazol-4-yl)methyl)-9-(1-methyl-3-(trifluoromethyl)-1H-pyrazol-4-yl)-3,4-dihydrobenzo[f][1,4]oxazepin-5(2H)-one]
- GI50: 231 nM

SMILES: Cc1ccnc(CN2CCOc3c(cc(Cn4cnn(C)c4=N)cc3-c3cn(C)nc3C(F)(F)F)C2=O)c1 [Example 32, 7-((5-imino-1-methyl-1,5-dihydro-4H-1,2,4-triazol-4-yl)methyl)-9-(1-methyl-3-(trifluoromethyl)-1H-pyrazol-4-yl)-4-((4-methylpyridin-2-yl)methyl)-3,4-dihydrobenzo[f][1,4]oxazepin-5(2H)-one]
- GI50: 775 nM

SMILES: COc1cc(CN2C[C@@H](C)Oc3c(cc(Cn4ccn(C)c4=N)cc3-c3ccc(F)cc3C)C2=O)cc(OC)c1 [Example 33, (R)-4-(3,5-dimethoxybenzyl)-9-(4-fluoro-2-methylphenyl)-7-((2-imino-3-methyl-2,3-dihydro-1H-imidazol-1-yl)methyl)-2-methyl-3,4-dihydrobenzo[f][1,4]oxazepin-5(2H)-one]
- GI50: 130 nM

SMILES: COc1cc(CN2C[C@@H](C)Oc3c(cc(Cn4ccnc4C)cc3-c3ccc(F)cc3C)C2=O)cc(OC)c1 [Example 34, (R)-4-(3,5-Dimethoxybenzyl)-9-(4-fluoro-2-methylphenyl)-2-methyl-7-((2-methyl-1H-imidazol-1-yl)methyl)-3,4-dihydrobenzo[f][1,4]oxazepin-5(2H)-one]
- GI50: 1470 nM

SMILES: COc1cc(CN2C[C@H](C)Oc3c(cc(Cn4ccn(C)c4=N)cc3-c3ccc(F)cc3C)C2=O)cc(OC)c1 [Example 35, (S)-4-(3,5-Dimethoxybenzyl)-9-(4-fluoro-2-methylphenyl)-7-((2-imino-3-methyl-2,3-dihydro-1H-imidazol-1-yl)methyl)-2-methyl-3,4-dihydrobenzo[f][1,4]oxazepin-5(2H)-one]
- GI50: 306 nM

SMILES: COc1cc(CN2C[C@H](C)Oc3c(cc(Cn4ccnc4C)cc3-c3ccc(F)cc3C)C2=O)cc(OC)c1 [Example 36, (S)-4-(3,5-Dimethoxybenzyl)-9-(4-fluoro-2-methylphenyl)-2-methyl-7-((2-methyl-1H-imidazol-1-yl)methyl)-3,4-dihydrobenzo[f][1,4]oxazepin-5(2H)-one]
- GI50: 2430 nM

SMILES: CCc1nccn1Cc1cc2c(c(-c3cn(C)nc3C(F)(F)F)c1)OCCN(Cc1cc(C)ccn1)C2=O [Example 37, 7-((2-Ethyl-1H-imidazol-1-yl)methyl)-9-(1-methyl-3-(trifluoromethyl)-1H-pyrazol-4-yl)-4-((4-methylpyridin-2-yl)methyl)-3,4-dihydrobenzo[f][1,4]oxazepin-5(2H)-one]
- GI50: 1080 nM

SMILES: CCc1nccn1Cc1cc2c(c(-c3cn(C)nc3C(F)(F)F)c1)OCCN(Cc1cc(C)cc(C)n1)C2=O [Example 38, 4-((4,6-Dimethylpyridin-2-yl)methyl)-7-((2-ethyl-1H-imidazol-1-yl)methyl)-9-(1-methyl-3-(trifluoromethyl)-1H-pyrazol-4-yl)-3,4-dihydrobenzo[f][1,4]oxazepin-5(2H)-one]
- GI50: 262 nM

SMILES: Cc1ccnc(CN2C[C@H](C)Oc3c(cc(Cn4ccnc4C)cc3-c3cn(C)nc3C(F)(F)F)C2=O)c1 [Example 39, (S)-2-Methyl-7-((2-methyl-1H-imidazol-1-yl)methyl)-9-(1-methyl-3-(trifluoromethyl)-1H-pyrazol-4-yl)-4-((4-methylpyridin-2-yl)methyl)-3,4-dihydrobenzo[f][1,4]oxazepin-5(2H)-one]
- GI50: 730 nM

SMILES: Cc1ccnc(CN2C[C@@H](C)Oc3c(cc(Cn4ccnc4C)cc3-c3cn(C)nc3C(F)(F)F)C2=O)c1 [Example 40, (R)-2-Methyl-7-((2-methyl-1H-imidazol-1-yl)methyl)-9-(1-methyl-3-(trifluoromethyl)-1H-pyrazol-4-yl)-4-((4-methylpyridin-2-yl)methyl)-3,4-dihydrobenzo[f][1,4]oxazepin-5(2H)-one]
- GI50: 529 nM

SMILES: Cc1cc(C)nc(CN2CCOc3c(cc(Cn4ccnc4C)cc3-c3ccc(F)cc3C)C2=O)c1 [Example 41, 4-((4,6-Dimethylpyridin-2-yl)methyl)-9-(4-fluoro-2-methylphenyl)-7-((2-methyl-1H-imidazol-1-yl)methyl)-3,4-dihydrobenzo[f][1,4]oxazepin-5(2H)-one]
- GI50: 985 nM

SMILES: Cc1cc(C)nc(CN2CCOc3c(cc(Cn4ccnc4C)cc3-c3cccnc3C(F)(F)F)C2=O)c1 [Example 42, 4-((4,6-Dimethylpyridin-2-yl)methyl)-7-((2-methyl-1H-imidazol-1-yl)methyl)-9-(2-(trifluoromethyl)pyridin-3-yl)-3,4-dihydrobenzo[f][1,4]oxazepin-5(2H)-one]
- GI50: 282 nM

SMILES: Cc1cc(C)nc(CN2CCOc3c(cc(Cn4ccnc4C)cc3-c3sc(C)nc3C)C2=O)c1 [Example 43, 4-((4,6-Dimethylpyridin-2-yl)methyl)-9-(2,4-dimethylthiazol-5-yl)-7-((2-methyl-1H-imidazol-1-yl)methyl)-3,4-dihydrobenzo[f][1,4]oxazepin-5(2H)-one]
- GI50: 159 nM

SMILES: Cc1cc(C)nc(CN2CCOc3c(cc(Cn4ccnc4C)cc3-c3cccnc3C)C2=O)c1 [Example 44, 4-((4,6-Dimethylpyridin-2-yl)methyl)-7-((2-methyl-1H-imidazol-1-yl)methyl)-9-(2-methylpyridin-3-yl)-3,4-dihydrobenzo[f][1,4]oxazepin-5(2H)-one]
- GI50: 548 nM

SMILES: Cc1cc(C)nc(CN2CCOc3c(cc(Cn4ccnc4C)cc3-c3ccccc3C)C2=O)c1 [Example 45, 4-((4,6-Dimethylpyridin-2-yl)methyl)-7-((2-methyl-1H-imidazol-1-yl)methyl)-9-(o-tolyl)-3,4-dihydrobenzo[f][1,4]oxazepin-5(2H)-one]
- GI50: 157 nM

SMILES: Cc1cc(C)nc(CN2CCOc3c(cc(Cn4ccnc4C)cc3-c3scnc3C)C2=O)c1 [Example 46, 4-((4,6-Dimethylpyridin-2-yl)methyl)-7-((2-methyl-1H-imidazol-1-yl)methyl)-9-(4-methylthiazol-5-yl)-3,4-dihydrobenzo[f][1,4]oxazepin-5(2H)-one]
- GI50: 703 nM

SMILES: COc1ccnc([C@H](C)N2CCOc3c(cc(Cn4ccnc4C)cc3-c3cn(C)nc3C(F)(F)F)C2=O)c1 [Example 47, (S)-4-(1-(4-Methoxypyridin-2-yl)ethyl)-7-((2-methyl-1H-imidazol-1-yl)methyl)-9-(1-methyl-3-(trifluoromethyl)-1H-pyrazol-4-yl)-3,4-dihydrobenzo[f][1,4]oxazepin-5(2H)-one]
- GI50: 31 nM

SMILES: Cc1cc(C)nc(CN2CCOc3c(cc(Cn4ccnc4C)cc3-c3ccc(F)cc3Cl)C2=O)c1 [Example 48, 9-(2-Chloro-4-fluorophenyl)-4-((4,6-dimethylpyridin-2-yl)methyl)-7-((2-methyl-1H-imidazol-1-yl)methyl)-3,4-dihydrobenzo[f][1,4]oxazepin-5(2H)-one]
- GI50: 95 nM

SMILES: Cc1cc(C)nc(CN2CCOc3c(cc(Cn4ccnc4C)cc3-c3cc(C)ccc3C)C2=O)c1 [Example 49, 9-(2,5-Dimethylphenyl)-4-((4,6-dimethylpyridin-2-yl)methyl)-7-((2-methyl-1H-imidazol-1-yl)methyl)-3,4-dihydrobenzo[f][1,4]oxazepin-5(2H)-one]
- GI50: 45 nM

SMILES: COc1ccnc([C@H](C)N2CCOc3c(cc(Cn4ccnc4C)cc3-c3ccc(F)cc3C)C2=O)c1 [Example 50, (S)-9-(4-Fluoro-2-methylphenyl)-4-(1-(4-methoxypyridin-2-yl)ethyl)-7-((2-methyl-1H-imidazol-1-yl)methyl)-3,4-dihydrobenzo[f][1,4]oxazepin-5(2H)-one]
- GI50: 50 nM

SMILES: Cc1cc(C)nc(CN2CCOc3c(cc(Cn4ccnc4C)cc3-c3cc(C)c(F)cc3C)C2=O)c1 [Example 51, 4-((4,6-Dimethylpyridin-2-yl)methyl)-9-(4-fluoro-2,5-dimethylphenyl)-7-((2-methyl-1H-imidazol-1-yl)methyl)-3,4-dihydrobenzo[f][1,4]oxazepin-5(2H)-one]
- GI50: 79 nM
